Assay results: publication PMC8699473, “An Easily Expandable Multi-Drug LC-MS Assay for the Simultaneous Quantification of 57 Oral Antitumor Drugs in Human Plasma” (Cancers, 2021)

Assays:
[1] = Autosampler stability of ready for injection samples; type: physicochemical, human
[2] = Freeze-thaw stability in spiked pooled human plasma; type: physicochemical
[3] = Long-term stability in spiked pooled human plasma
[4] = design: method as in supplement references [1-55] as printed per drug; settings: minimum steady-state blood plasma concentration after multiple dose administration; ref supplement references [1-55] per drug; cited from earlier work
[5] = Short-term stability in spiked pooled human plasma (bench-top, 4 °C, 56 °C)

## CCc1cc2c(cc1N1CCC(N3CCOCC3)CC1)C(C)(C)c1[nH]c3cc(C#N)ccc3c1C2=O [Alectinib]
[1]; validation standard 2xLLOV
  Autosampler (24h, 4°C) Accuracy [%]: 99.6%
  Autosampler (72h, 4°C) Accuracy [%]: 102.6%
[1]; validation standard LLOV
  Autosampler (24h, 4°C) Accuracy [%]: 91.8%
  Autosampler (72h, 4°C) Accuracy [%]: 93.7%
[1]; validation standard MOV
  Autosampler (24h, 4°C) Accuracy [%]: 104.1%
  Autosampler (72h, 4°C) Accuracy [%]: 104.1%
[1]; validation standard ULOV
  Autosampler (24h, 4°C) Accuracy [%]: 99.3%
  Autosampler (72h, 4°C) Accuracy [%]: 100.6%
[2]; validation standard 2xLLOV
  Freeze-Thaw Accuracy [%]: 100.0%
[2]; validation standard LLOV
  Freeze-Thaw Accuracy [%]: 91.2%
[2]; validation standard MOV
  Freeze-Thaw Accuracy [%]: 101.2%
[2]; validation standard ULOV
  Freeze-Thaw Accuracy [%]: 96.5%
[3]; validation standard 2xLLOV
  Long-term stability, 1 month, -20°C Accuracy [%]: 87.1%
  Long-term stability, 1 month, -80°C Accuracy [%]: 83.3%
  Long-term stability, 2 month, -20°C Accuracy [%]: 86.4%
  Long-term stability, 2 month, -80°C Accuracy [%]: 86.9%
  Long-term stability, 3 month, -20°C Accuracy [%]: 82.7%
  Long-term stability, 3 month, -80°C Accuracy [%]: 86.1%
  Long-term stability, 6 weeks, 4°C, without daylight Accuracy [%]: 81.2%
[3]; validation standard LLOV
  Long-term stability, 1 month, -20°C Accuracy [%]: 84.7%
  Long-term stability, 1 month, -80°C Accuracy [%]: 83.5%
  Long-term stability, 2 month, -20°C Accuracy [%]: 79.9%
  Long-term stability, 2 month, -80°C Accuracy [%]: 81.8%
  Long-term stability, 3 month, -20°C Accuracy [%]: 79.0%
  Long-term stability, 3 month, -80°C Accuracy [%]: 81.6%
  Long-term stability, 6 weeks, 4°C, without daylight Accuracy [%]: 75.7%
[3]; validation standard MOV
  Long-term stability, 1 month, -20°C Accuracy [%]: 85.8%
  Long-term stability, 1 month, -80°C Accuracy [%]: 83.9%
  Long-term stability, 2 month, -20°C Accuracy [%]: 89.5%
  Long-term stability, 2 month, -80°C Accuracy [%]: 89.3%
  Long-term stability, 3 month, -20°C Accuracy [%]: 88.4%
  Long-term stability, 3 month, -80°C Accuracy [%]: 86.7%
  Long-term stability, 6 weeks, 4°C, without daylight Accuracy [%]: 92.7%
[3]; validation standard ULOV
  Long-term stability, 1 month, -20°C Accuracy [%]: 85.2%
  Long-term stability, 1 month, -80°C Accuracy [%]: 81.7%
  Long-term stability, 2 month, -20°C Accuracy [%]: 88.3%
  Long-term stability, 2 month, -80°C Accuracy [%]: 88.1%
  Long-term stability, 3 month, -20°C Accuracy [%]: 84.7%
  Long-term stability, 3 month, -80°C Accuracy [%]: 84.8%
  Long-term stability, 6 weeks, 4°C, without daylight Accuracy [%]: 86.5%

## CNC(=O)c1ccc(N2C(=S)N(c3cnc(C#N)c(C(F)(F)F)c3)C(=O)C23CCC3)cc1F [Apalutamide]
[1]; validation standard 2xLLOV
  Autosampler (24h, 4°C) Accuracy [%]: 102.1%
  Autosampler (72h, 4°C) Accuracy [%]: 105.1%
[1]; validation standard LLOV
  Autosampler (24h, 4°C) Accuracy [%]: 97.2%
  Autosampler (72h, 4°C) Accuracy [%]: 102.8%
[1]; validation standard MOV
  Autosampler (24h, 4°C) Accuracy [%]: 106.8%
  Autosampler (72h, 4°C) Accuracy [%]: 106.0%
[1]; validation standard ULOV
  Autosampler (24h, 4°C) Accuracy [%]: 102.6%
  Autosampler (72h, 4°C) Accuracy [%]: 106.5%
[2]; validation standard 2xLLOV
  Freeze-Thaw Accuracy [%]: 95.6%
[2]; validation standard LLOV
  Freeze-Thaw Accuracy [%]: 93.8%
[2]; validation standard MOV
  Freeze-Thaw Accuracy [%]: 94.8%
[2]; validation standard ULOV
  Freeze-Thaw Accuracy [%]: 95.7%
[4]
  cmin: 3700 ng/mL
[5]; validation standard 2xLLOV
  Short-time stability (1h, 56°C) Accuracy [%]: 46.5%
  Short-time stability (24h, 4°C, without daylight) Accuracy [%]: 93.0%
  Short-time stability (24h, RT, with daylight) Accuracy [%]: 76.8%
  Short-time stability (24h, RT, without daylight) Accuracy [%]: 80.8%
[5]; validation standard LLOV
  Short-time stability (1h, 56°C) Accuracy [%]: 37.6%
  Short-time stability (24h, 4°C, without daylight) Accuracy [%]: 96.9%
  Short-time stability (24h, RT, with daylight) Accuracy [%]: 72.0%
  Short-time stability (24h, RT, without daylight) Accuracy [%]: 75.7%
[5]; validation standard MOV
  Short-time stability (1h, 56°C) Accuracy [%]: 41.2%
  Short-time stability (24h, 4°C, without daylight) Accuracy [%]: 84.3%
  Short-time stability (24h, RT, with daylight) Accuracy [%]: 75.7%
  Short-time stability (24h, RT, without daylight) Accuracy [%]: 75.2%
[5]; validation standard ULOV
  Short-time stability (1h, 56°C) Accuracy [%]: 29.0%
  Short-time stability (24h, 4°C, without daylight) Accuracy [%]: 84.2%
  Short-time stability (24h, RT, with daylight) Accuracy [%]: 63.9%
  Short-time stability (24h, RT, without daylight) Accuracy [%]: 63.8%
[3]; validation standard 2xLLOV
  Long-term stability, 1 month, -20°C Accuracy [%]: 94.7%
  Long-term stability, 1 month, -80°C Accuracy [%]: 93.2%
  Long-term stability, 2 month, -20°C Accuracy [%]: 91.6%
  Long-term stability, 2 month, -80°C Accuracy [%]: 100.0%
  Long-term stability, 3 month, -20°C Accuracy [%]: 85.1%
  Long-term stability, 3 month, -80°C Accuracy [%]: 94.9%
  Long-term stability, 6 weeks, 4°C, without daylight Accuracy [%]: 73.5%
[3]; validation standard LLOV
  Long-term stability, 1 month, -20°C Accuracy [%]: 96.1%
  Long-term stability, 1 month, -80°C Accuracy [%]: 100.0%
  Long-term stability, 2 month, -20°C Accuracy [%]: 93.4%
  Long-term stability, 2 month, -80°C Accuracy [%]: 102.3%
  Long-term stability, 3 month, -20°C Accuracy [%]: 90.4%
  Long-term stability, 3 month, -80°C Accuracy [%]: 98.4%
  Long-term stability, 6 weeks, 4°C, without daylight Accuracy [%]: 78.5%
[3]; validation standard MOV
  Long-term stability, 1 month, -20°C Accuracy [%]: 89.4%
  Long-term stability, 1 month, -80°C Accuracy [%]: 91.1%
  Long-term stability, 2 month, -20°C Accuracy [%]: 90.2%
  Long-term stability, 2 month, -80°C Accuracy [%]: 97.6%
  Long-term stability, 3 month, -20°C Accuracy [%]: 86.8%
  Long-term stability, 3 month, -80°C Accuracy [%]: 89.7%
  Long-term stability, 6 weeks, 4°C, without daylight Accuracy [%]: 54.9%
[3]; validation standard ULOV
  Long-term stability, 1 month, -20°C Accuracy [%]: 90.6%
  Long-term stability, 1 month, -80°C Accuracy [%]: 90.2%
  Long-term stability, 2 month, -20°C Accuracy [%]: 88.9%
  Long-term stability, 2 month, -80°C Accuracy [%]: 95.9%
  Long-term stability, 3 month, -20°C Accuracy [%]: 78.8%
  Long-term stability, 3 month, -80°C Accuracy [%]: 90.1%
  Long-term stability, 6 weeks, 4°C, without daylight Accuracy [%]: 48.1%
